Measurements as given in ChEMBL document CHEMBL4138149, “Discovery of 1-(3-aryl-4-chlorophenyl)-3-(p-aryl)urea derivatives against breast cancer by inhibiting PI3K/Akt/mTOR and Hedgehog signalings” (Eur J Med Chem, 2017).
Values belong to the molecule of their own block, whether it stands above or below them. Active and inactive are the calls of the source. The rule behind the calls is not given here.

Tests used:
MDA-MB-231 [1] = experiment: cells; conditions: Homo sapiens, MDA-MB-231, 72 h
Description: Cytotoxicity against human MDA-MB-231 cells after 72 hrs by MTT assay

PC-3 = experiment: Cytotoxicity against human PC3 cells after 72 hrs by MTT assay; assay type: functional, cell-based; conditions: PC-3, 72 h
MCF7 = experiment: Cytotoxicity against human MCF7 cells after 72 hrs by MTT assay; assay type: functional, cell-based; conditions: MCF7, 72 h
T47D [2] = experiment: Cytotoxicity against human T47D cells after 72 hrs by MTT assay; assay type: functional, cell-based
[3] = molecular target: Serine/threonine-protein kinase mTOR (Homo sapiens, UniProt P42345); experiment: Inhibition of mTOR (unknown origin) using Ulight-4EBP1 peptide as substrate measured after 1 hr by Lance Ultra assay
[4] = molecular target: Phosphatidylinositol 4,5-bisphosphate 3-kinase catalytic subunit alpha isoform (Homo sapiens) (UniProt P42336); experiment: Inhibition of PI3Kalpha (unknown origin) at 5 uM using PIP2 as substrate measured after 1 hr by Kinase-Glo luminescent assay relative to control
MDA-MB-231 [5] = experiment: Induction of apoptosis in human MDA-MB-231 cells assessed as live cells at 5 uM after 48 hrs by Annexin-V-FITC/propidium iodide staining based flow cytometric method (reference value: 94.3%); assay type: functional
MDA-MB-231 [6] = experiment: Induction of apoptosis in human MDA-MB-231 cells assessed as early apoptotic cells at 10 uM after 48 hrs by Annexin-V-FITC/propidium iodide staining based flow cytometric method (reference value: 0.634%); assay type: functional
MDA-MB-231 [7] = experiment: Inhibition of PI3K/Akt/mTOR signaling in human MDA-MB-231 cells assessed as reduction in AKT phosphorylation at Ser473 residue at 5 uM by Western blot analysis; assay type: cell-based; conditions: TDE = time-dependent effect
T47D [8] = experiment: Induction of apoptosis in human T47D cells assessed as live cells at 5 uM after 48 hrs by Annexin-V-FITC/propidium iodide staining based flow cytometric method (reference value: 86.2%); assay type: functional
MDA-MB-231 [9] = experiment: Inhibition of Hedgehog signaling in human MDA-MB-231 cells assessed as reduction in SAG-induced elevation of Gli1 expression at 5 to 10 uM after 48 hrs by Western blot analysis; assay type: cell-based
MDA-MB-231 [10] = experiment: Induction of apoptosis in human MDA-MB-231 cells assessed as late apoptotic cells at 5 uM after 48 hrs by Annexin-V-FITC/propidium iodide staining based flow cytometric method (reference value: 5%); assay type: functional
MDA-MB-231 [11] = experiment: Induction of apoptosis in human MDA-MB-231 cells assessed as late apoptotic cells at 10 uM after 48 hrs by Annexin-V-FITC/propidium iodide staining based flow cytometric method (reference value: 5%); assay type: functional
MDA-MB-231 [12] = experiment: Antimigratory activity against human MDA-MB-231 cells at 5 to 10 uM after 24 hrs by tryphan blue staining based transwell assay; assay type: functional, cell-based
T47D [13] = experiment: Induction of apoptosis in human T47D cells assessed as late apoptotic cells at 5 uM after 48 hrs by Annexin-V-FITC/propidium iodide staining based flow cytometric method (reference value: 9.18%); assay type: functional
T47D [14] = experiment: Induction of apoptosis in human T47D cells assessed as early apoptotic cells at 10 uM after 48 hrs by Annexin-V-FITC/propidium iodide staining based flow cytometric method (reference value: 4.49%); assay type: functional
T47D [15] = experiment: Induction of apoptosis in human T47D cells assessed as necrotic cells at 5 uM after 48 hrs by Annexin-V-FITC/propidium iodide staining based flow cytometric method (reference value: 0.135%); assay type: functional
T47D [16] = experiment: Induction of apoptosis in human T47D cells assessed as necrotic cells at 10 uM after 48 hrs by Annexin-V-FITC/propidium iodide staining based flow cytometric method (reference value: 0.135%); assay type: functional
T47D [17] = experiment: Induction of apoptosis in human T47D cells assessed as late apoptotic cells at 10 uM after 48 hrs by Annexin-V-FITC/propidium iodide staining based flow cytometric method (reference value: 9.18%); assay type: functional
MDA-MB-231 [18] = experiment: Induction of apoptosis in human MDA-MB-231 cells assessed as live cells at 10 uM after 48 hrs by Annexin-V-FITC/propidium iodide staining based flow cytometric method (reference value: 94.3%); assay type: functional
MDA-MB-231 [19] = experiment: Inhibition of PI3K/Akt/mTOR signaling in human MDA-MB-231 cells assessed as reduction in phosphorylation of S6K at Thr389 residue at 5 uM measured within 4 hrs by Western blot analysis; assay type: cell-based
MDA-MB-231 [20] = experiment: Induction of apoptosis in human MDA-MB-231 cells assessed as necrotic cells at 10 uM after 48 hrs by Annexin-V-FITC/propidium iodide staining based flow cytometric method (reference value: 0.086%); assay type: functional
T47D [21] = experiment: Induction of apoptosis in human T47D cells assessed as live cells at 10 uM after 48 hrs by Annexin-V-FITC/propidium iodide staining based flow cytometric method (reference value: 86.2%); assay type: functional
MDA-MB-231 [22] = experiment: Induction of apoptosis in human MDA-MB-231 cells assessed as necrotic cells at 5 uM after 48 hrs by Annexin-V-FITC/propidium iodide staining based flow cytometric method (reference value: 0.086%); assay type: functional
MDA-MB-231 [23] = experiment: Induction of apoptosis in human MDA-MB-231 cells assessed as early apoptotic cells at 5 uM after 48 hrs by Annexin-V-FITC/propidium iodide staining based flow cytometric method (reference value: 0.634%); assay type: functional
T47D [24] = experiment: Induction of apoptosis in human T47D cells assessed as early apoptotic cells at 5 uM after 48 hrs by Annexin-V-FITC/propidium iodide staining based flow cytometric method (reference value: 4.49%); assay type: functional
MDA-MB-231 [25] = experiment: Inhibition of PI3K/Akt/mTOR signaling in human MDA-MB-231 cells assessed as reduction in phosphorylation of S6K at Thr412 residue at 5 uM measured within 4 hrs by Western blot analysis; assay type: cell-based
[26] = molecular target: Phosphatidylinositol 4,5-bisphosphate 3-kinase catalytic subunit alpha isoform (Homo sapiens) (UniProt P42336); experiment: Inhibition of PI3Kalpha (unknown origin) at 50 uM using PIP2 as substrate measured after 1 hr by Kinase-Glo luminescent assay relative to control

Sequence of Phosphatidylinositol 4,5-bisphosphate 3-kinase catalytic subunit alpha isoform (Homo sapiens) (P42336 whole entry, canonical isoform): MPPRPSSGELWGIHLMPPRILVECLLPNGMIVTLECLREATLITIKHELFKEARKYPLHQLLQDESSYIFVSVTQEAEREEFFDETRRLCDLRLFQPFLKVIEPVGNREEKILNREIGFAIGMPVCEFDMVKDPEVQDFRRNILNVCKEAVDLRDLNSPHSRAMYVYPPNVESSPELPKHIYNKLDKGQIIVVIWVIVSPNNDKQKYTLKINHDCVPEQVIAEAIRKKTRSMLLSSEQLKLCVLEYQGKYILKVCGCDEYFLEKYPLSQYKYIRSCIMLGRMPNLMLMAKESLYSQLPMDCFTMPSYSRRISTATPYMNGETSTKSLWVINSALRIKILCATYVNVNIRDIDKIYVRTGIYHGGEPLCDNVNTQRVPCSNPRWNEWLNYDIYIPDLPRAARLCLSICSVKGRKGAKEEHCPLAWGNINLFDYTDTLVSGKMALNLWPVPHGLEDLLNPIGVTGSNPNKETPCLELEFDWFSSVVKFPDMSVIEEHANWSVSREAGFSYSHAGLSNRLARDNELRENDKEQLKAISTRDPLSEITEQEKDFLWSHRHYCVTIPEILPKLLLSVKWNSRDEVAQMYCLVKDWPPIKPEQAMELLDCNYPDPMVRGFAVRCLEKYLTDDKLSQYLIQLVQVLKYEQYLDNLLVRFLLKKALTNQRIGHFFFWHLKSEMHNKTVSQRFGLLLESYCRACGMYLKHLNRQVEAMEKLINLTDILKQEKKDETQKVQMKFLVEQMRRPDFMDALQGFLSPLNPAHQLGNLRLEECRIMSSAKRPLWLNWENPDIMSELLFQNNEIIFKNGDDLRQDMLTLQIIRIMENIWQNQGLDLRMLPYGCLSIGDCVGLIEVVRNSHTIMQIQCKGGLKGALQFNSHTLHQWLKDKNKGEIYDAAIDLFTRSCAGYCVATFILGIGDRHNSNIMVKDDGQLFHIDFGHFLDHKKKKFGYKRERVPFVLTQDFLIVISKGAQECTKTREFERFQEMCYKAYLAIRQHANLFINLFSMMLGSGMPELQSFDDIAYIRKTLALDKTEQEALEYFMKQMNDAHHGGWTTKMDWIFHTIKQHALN

IC50 (MDA-MB-231 [1]): 1.88 µM
Structure (SMILES): Nc1cc(C(F)(F)F)c(-c2cc(N3CCOCC3)nc(N3CCOCC3)n2)cn1 [BUPARLISIB]
IC50 (PC-3): 5.34 µM
IC50 (MCF7): 11.1 µM
IC50 (T47D [2]): 6.92 µM

IC50 (MDA-MB-231 [1]): > 50 µM
Structure (SMILES): CS(=O)(=O)c1ccc(C(=O)Nc2ccc(Cl)c(-c3ccccn3)c2)c(Cl)c1 [VISMODEGIB]
IC50 (PC-3): > 50 µM
IC50 (MCF7): > 50 µM
IC50 (T47D [2]): 41.3 µM

Structure (SMILES): O=C(Nc1ccc(-c2nc(N3CCOCC3)nc(N3CCOCC3)n2)cc1)Nc1ccc(Cl)c(-c2cccs2)c1
IC50 (T47D [2]): 44.1 µM

Structure (SMILES): O=C(Nc1ccc(-c2cc(N3CCOCC3)nc(N3CCOCC3)n2)cc1)Nc1ccc(Cl)c(-c2ccccn2)c1
IC50 (T47D [2]): 35.1 µM

IC50 [3]: 0.2 µM
inhibition [4]: 26.6%
IC50 (MDA-MB-231 [1]): 7.82 µM
Structure (SMILES): O=C(Nc1ccc(-c2nc(N3CCOCC3)nc(N3CCOCC3)n2)cc1)Nc1ccc(Cl)c(-c2cccnc2)c1
IC50 (PC-3): 5.37 µM
IC50 (MCF7): 5.75 µM
IC50 (T47D [2]): 9.38 µM

IC50 [3]: 0.09 µM
inhibition [4]: 6.8%
Structure (SMILES): O=C(Nc1ccc(-c2nc(N3CCOCC3)nc(N3CCOCC3)n2)cc1)Nc1ccc(Cl)c(-c2ccccn2)c1
IC50 (T47D [2]): 14.2 µM

Structure (SMILES): O=C(Nc1ccc(-c2ccnc(N3CCOCC3)n2)cc1)Nc1ccc(Cl)c(-c2cccs2)c1
IC50 (T47D [2]): 24.3 µM

Structure (SMILES): O=C(Nc1ccc(-c2cc(N3CCOCC3)nc(N3CCOCC3)n2)cc1)Nc1ccc(Cl)c(-c2ccsc2)c1
IC50 (T47D [2]): 18.7 µM

Structure (SMILES): CS(=O)(=O)c1ccc(C(=O)Nc2ccc(-c3nc(N4CCOCC4)nc(N4CCOCC4)n3)cc2)c(Cl)c1
IC50 (T47D [2]): 17.5 µM

Structure (SMILES): O=C(Nc1ccc(-c2ccnc(N3CCOCC3)n2)cc1)Nc1ccc(Cl)c(-c2ccsc2)c1
IC50 (T47D [2]): 22.6 µM

IC50 [3]: 0.18 µM
inhibition [4]: 16.3%
IC50 (MDA-MB-231 [1]): 3.61 µM
Structure (SMILES): O=C(Nc1ccc(-c2nc(N3CCOCC3)nc(N3CCOCC3)n2)cc1)Nc1ccc(Cl)c(-c2ccncc2)c1
Activity (MDA-MB-231 [5]): 51.6%
Activity (MDA-MB-231 [6]): 42.5%
inhibition (MDA-MB-231 [7]): Tde
Activity (T47D [8]): 80.8%
inhibition (MDA-MB-231 [9]): Active
IC50 (PC-3): 11 µM
Activity (MDA-MB-231 [10]): 28.6%
Activity (MDA-MB-231 [11]): 49.9%
Activity (MDA-MB-231 [12]): Active
Activity (T47D [13]): 10.5%
Activity (T47D [14]): 75.1%
Activity (T47D [15]): 0.132%
IC50 (MCF7): 7.61 µM
Activity (T47D [16]): 0.347%
Activity (T47D [17]): 10.6%
Activity (MDA-MB-231 [18]): 7.01%
inhibition (MDA-MB-231 [19]): Active
IC50 (T47D [2]): 7.94 µM
Activity (MDA-MB-231 [20]): 0.595%
Activity (T47D [21]): 13.9%
Activity (MDA-MB-231 [22]): 1.17%
Activity (MDA-MB-231 [23]): 18.7%
Activity (T47D [24]): 8.49%
inhibition (MDA-MB-231 [25]): Active

Structure (SMILES): O=C(Nc1ccc(-c2nc(N3CCOCC3)nc(N3CCOCC3)n2)cc1)Nc1ccc(Cl)c(-c2ccsc2)c1
IC50 (T47D [2]): 23.2 µM

Structure (SMILES): O=C(Nc1ccc(-c2cc(N3CCOCC3)nc(N3CCOCC3)n2)cc1)Nc1ccc(Cl)c(-c2cccs2)c1
IC50 (T47D [2]): 25.4 µM

Structure (SMILES): CS(=O)(=O)c1ccc(C(=O)Nc2ccc(-c3ccnc(N4CCOCC4)n3)cc2)c(Cl)c1
IC50 (T47D [2]): 25 µM

IC50 [3]: 0.26 µM
inhibition [4]: 9.37%
IC50 (MDA-MB-231 [1]): 7.32 µM
Structure (SMILES): O=C(Nc1ccc(-c2cc(N3CCOCC3)nc(N3CCOCC3)n2)cc1)Nc1ccc(Cl)c(-c2ccncc2)c1
IC50 (PC-3): 9.28 µM
IC50 (MCF7): 8.2 µM
IC50 (T47D [2]): 7.41 µM

IC50 (MDA-MB-231 [1]): 18.9 µM
Structure (SMILES): O=C(Nc1ccc(-c2ccnc(N3CCOCC3)n2)cc1)Nc1ccc(Cl)c(-c2ccncc2)c1
IC50 (PC-3): 17.7 µM
IC50 (MCF7): 19.2 µM
IC50 (T47D [2]): 16 µM

Structure (SMILES): O=C(Nc1ccc(-c2ccnc(N3CCOCC3)n2)cc1)Nc1ccc(Cl)c(-c2ccccc2)c1
IC50 (T47D [2]): 44.6 µM

Structure (SMILES): CS(=O)(=O)c1ccc(C(=O)Nc2ccc(-c3cc(N4CCOCC4)nc(N4CCOCC4)n3)cc2)c(Cl)c1
IC50 (T47D [2]): 22.3 µM

IC50 [3]: 0.33 µM
inhibition [4]: 35.1%
IC50 (MDA-MB-231 [1]): 8.49 µM
Structure (SMILES): O=C(Nc1ccc(-c2cc(N3CCOCC3)nc(N3CCOCC3)n2)cc1)Nc1ccc(Cl)c(-c2cccnc2)c1
IC50 (PC-3): 15.5 µM
IC50 (MCF7): 9.15 µM
IC50 (T47D [2]): 3.96 µM

IC50 [3]: > 10 µM
IC50 (MDA-MB-231 [1]): 14.5 µM
inhibition [26]: 30%
Structure (SMILES): O=C(Nc1ccc(-c2ccnc(N3CCOCC3)n2)cc1)Nc1ccc(Cl)c(-c2cccnc2)c1
IC50 (PC-3): 11.8 µM
IC50 (MCF7): 16.8 µM
IC50 (T47D [2]): 4.11 µM

Structure (SMILES): O=C(Nc1ccc(-c2ccnc(N3CCOCC3)n2)cc1)Nc1ccc(Cl)c(-c2ccccn2)c1
IC50 (T47D [2]): 23.1 µM

Structure (SMILES): O=C(Nc1ccc(-c2cc(N3CCOCC3)nc(N3CCOCC3)n2)cc1)Nc1ccc(Cl)c(-c2ccccc2)c1
IC50 (T47D [2]): 15.6 µM

IC50 [3]: 3.45 µM
inhibition [4]: 57.1%
Structure (SMILES): O=C(Nc1ccc(-c2nc(N3CCOCC3)nc(N3CCOCC3)n2)cc1)Nc1ccc(Cl)c(-c2ccccc2)c1
IC50 (T47D [2]): 15.4 µM
